# Assay: Inhibition of ADP-mediated platelet aggregation in human gel-filtered platelets
row,Compound,IC50 [nM]
1,O=C(O)CCNC(=O)c1cc(C(=O)NCCC2CCNCC2)ccn1 [3-{[4-(2-Piperidin-4-yl-ethylcarbamoyl)-pyridine-2-carbonyl]-amino}-propionic acid],1100
2,O=C(O)CCNC(=O)c1cncc(C(=O)NCCC2CCNCC2)c1 [3-{[5-(2-Piperidin-4-yl-ethylcarbamoyl)-pyridine-3-carbonyl]-amino}-propionic acid],2000
3,O=C(O)CCNC(=O)c1cccc(C(=O)NCCC2CCNCC2)n1 [3-{[6-(2-Piperidin-4-yl-ethylcarbamoyl)-pyridine-2-carbonyl]-amino}-propionic acid],300000

# The remaining molecules from weak to strong by IC50, led by results:
row,IC50 [nM],Compound
1,10000,"O=C(O)CCN1Cc2ccc(C(=O)NCCC3CCNCC3)cc2C1=O [3-[1-Oxo-6-(2-piperidin-4-yl-ethylcarbamoyl)-1,3-dihydro-isoindol-2-yl]-propionic acid]"
2,1600,O=C(O)CCNC(=O)c1ccnc(C(=O)NCCC2CCNCC2)c1 [3-{[2-(2-Piperidin-4-yl-ethylcarbamoyl)-pyridine-4-carbonyl]-amino}-propionic acid]
3,530,O=C(O)CCNC(=O)c1cccc(C(=O)NCCC2CCNCC2)c1 [3-[3-(2-Piperidin-4-yl-ethylcarbamoyl)-benzoylamino]-propionic acid]
